Reference: ChEMBL document CHEMBL5604063, “ASAP - DENV-2 NS2B-NS3 protease fluorescence dose response” (2024)
pIC50: −log10 of the molar value. “And” between values parts separate entries of the source, which are not always exact repeats. Identical values can stand only once.

Target: Genome polyprotein (dengue virus type 2, UniProt P29990)
Format: functional, Thailand/16681/1984

Chain of Genome polyprotein (P29990 1346-1475 limits assumed): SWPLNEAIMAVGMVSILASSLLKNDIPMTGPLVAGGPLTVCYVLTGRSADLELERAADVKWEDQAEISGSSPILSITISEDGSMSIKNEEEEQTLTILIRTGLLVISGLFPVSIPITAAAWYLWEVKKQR
Chain of Genome polyprotein (P29990 1476-2093 limits assumed): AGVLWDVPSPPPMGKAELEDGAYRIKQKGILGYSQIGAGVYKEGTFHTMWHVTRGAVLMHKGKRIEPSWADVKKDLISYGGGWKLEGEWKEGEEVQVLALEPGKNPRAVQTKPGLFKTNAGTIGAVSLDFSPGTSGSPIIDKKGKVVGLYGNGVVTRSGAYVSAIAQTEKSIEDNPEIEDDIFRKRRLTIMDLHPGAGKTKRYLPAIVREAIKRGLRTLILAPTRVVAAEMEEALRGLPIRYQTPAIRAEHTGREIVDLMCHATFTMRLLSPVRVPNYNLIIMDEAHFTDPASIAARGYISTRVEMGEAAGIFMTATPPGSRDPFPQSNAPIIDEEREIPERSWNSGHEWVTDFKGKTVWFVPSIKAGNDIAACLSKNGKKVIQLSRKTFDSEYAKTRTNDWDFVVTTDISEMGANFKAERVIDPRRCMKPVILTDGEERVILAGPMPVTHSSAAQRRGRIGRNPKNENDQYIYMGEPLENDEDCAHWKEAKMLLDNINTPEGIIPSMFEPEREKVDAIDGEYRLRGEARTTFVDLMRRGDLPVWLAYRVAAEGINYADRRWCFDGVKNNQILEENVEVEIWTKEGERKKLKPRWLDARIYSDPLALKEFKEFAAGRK

| SMILES | pIC50 |
| --- | --- |
| CCn1nc(C)c(CN(C)Cc2ccc3c(c2)CCNCC3)c1C | < 4.00 |
| O=C(N[C@H](C(=O)NCc1cccc(CC(F)(F)F)c1)c1ccc(OCc2ccccc2)cc1)OCc1ccccc1 | < 4.00 |
| CC[C@@H](C)c1nc(C)cc(N2CCC(n3ncc(N)c3C(F)(F)F)CC2)n1 | < 4.00 |
| CCc1cc(F)ccc1CC(=O)N1CCCc2cc(CCN)ccc21 | < 4.00 |
| Cc1ccc([C@@H](NC(=O)OCc2ccccc2)C(=O)Nc2cccc(CN)c2)cc1C(F)(F)F | < 4.00 |
| CCn1c(=O)c(N2C[C@@H](CO)[C@H](c3cncn3C)C2)nc2ccccc21 | < 4.00 |
| NC(=O)c1cccnc1N1CCCN(c2nc(-c3cc(Cl)cc(Cl)c3)no2)CC1 | < 4.00 |
| O=c1[nH]ncn1C1CCN(Cc2c[nH]c3ccccc23)CC1 | < 4.00 |
| Cc1cc(C)c([C@@H](NC(=O)OCc2ccccc2)C(=O)Nc2cccc(CN)c2)c(C)c1 | < 4.00 |
| CCn1c(=O)c(N2CC[C@H](N3CCCS3(=O)=O)C2)nc2ccccc21 | < 4.00 |
| Cn1cc(C(=O)N[C@@H](C(=O)Nc2cccc(CN)c2)c2ccc(OCc3ccccc3)cc2)cn1 | < 4.00 |
| CCc1cc(COc2ccc(S(=O)(=O)Nc3ccc(Cl)cc3C(=O)O)cc2)no1 | 4.34 |
| CS(=O)(=O)NCc1ccc(CNC(=O)[C@@H](NC(=O)OCc2ccccc2)c2ccc(OCc3ccccc3)cc2)cc1 | < 4.00 |
| O=Cc1ccc(F)c(C(=O)N2CCN(C3=NCCCN3)CC2)c1 | < 4.00 |
| CCn1cnnc1COc1ccc(S(=O)(=O)Nc2ccc(Cl)cc2C(=O)O)cc1 | < 4.00 |
| Cc1ccc(F)c2c1CCN(Cc1ccn(C3CNC3)c1)C2 | < 4.00 |
| COc1ccc(CNC(=O)[C@@H](NC(=O)OCc2ccccc2)c2ccc(OCc3ccccc3)cc2)cn1 | < 4.00 |
| CC(C)n1cc(CNC(=O)[C@@H](NC(=O)OCc2ccccc2)c2ccc(OCc3ccccc3)cc2)cn1 | < 4.00 |
| CC(C)(C)c1cc(N2CCN(c3cccc4[nH]ncc34)CC2)nc(C(=O)O)n1 | < 4.00 |
| Cc1ocnc1COc1ccc(S(=O)(=O)Nc2ccc(Cl)cc2C(=O)O)cc1 | < 4.00 |
| O=C(N[C@@H](C(=O)NCc1cn[nH]c1)c1ccc(OCc2ccccc2)cc1)OCc1ccccc1 | < 4.00 |
| COC(=O)[C@@H](C)NC(=O)c1cc(Cl)ccc1NS(=O)(=O)c1ccc(Oc2ccccc2Cl)cc1 | 4.41 |
| O=C(O)c1cc(Cl)ccc1CNS(=O)(=O)c1ccc(Oc2ccccc2Cl)cc1 | 4.01 |
| Cc1cccnc1COc1ccc(S(=O)(=O)Nc2ccc(Cl)cc2C(=O)O)cc1 | < 4.00 |

| SMILES | pIC50 |
| --- | --- |
| O=C(N[C@@H](C(=O)NCc1cnccn1)c1ccc(OCc2ccccc2)cc1)OCc1ccccc1 | < 4.00 |
| COc1cncc(CNC(=O)[C@@H](NC(=O)OCc2ccccc2)c2ccc(OCc3ccccc3)cc2)c1 | < 4.00 |
| N#Cc1c(C(F)F)cccc1N1CCC(n2ncc(N)c2C(F)(F)F)CC1 | < 4.00 |
| O=C(N[C@@H](C(=O)Nc1ccncc1)c1ccc(OCc2ccccc2)cc1)OCc1ccccc1 | < 4.00 |
| O=C(O)c1cc(Cl)ccc1NS(=O)(=O)c1ccc(OCc2ccccn2)cc1 | < 4.00 |
| O=C(O)Cn1ccnc(N2CC[C@@H](CO)C2)c1=O | < 4.00 |
| N[C@H]1CC[C@H](NC(=O)[C@@H](NC(=O)OCc2ccccc2)c2ccc(OCc3ccccc3)cc2)CC1 | < 4.00 |
| NCc1ccnc(CNC(=O)[C@@H](NC(=O)OCc2ccccc2)c2ccc(OCc3ccccc3)cc2)c1 | < 4.00 |
| CN(C)Cc1ccccc1CNC(=O)[C@@H](NC(=O)OCc1ccccc1)c1ccc(OCc2ccccc2)cc1 | < 4.00 |
| NCc1cccc(NC(=O)[C@@H](NC(=O)OCc2ccccc2)c2ccc(C(F)(F)F)cc2)c1 | 4.19 |
| CN(C)Cc1cncc(NC(=O)[C@@H](NC(=O)OCc2ccccc2)c2ccc(OCc3ccccc3)cc2)c1 | < 4.00 |
| O=C(N[C@H](C(=O)NCc1ccc(F)cc1)c1ccc(OCc2ccccc2)cc1)OCc1ccccc1 | < 4.00 |
| CN1CCN(Cc2ccccc2CNC(=O)[C@@H](NC(=O)OCc2ccccc2)c2ccc(OCc3ccccc3)cc2)CC1 | < 4.00 |
| Cc1ccc2c(c1)CN(C(=O)c1ccc(C3(CN)CC3)cc1)C(C)(C)C2 | < 4.00 |
| CN(C)CCOc1cccc(CNC(=O)[C@@H](NC(=O)OCc2ccccc2)c2ccc(OCc3ccccc3)cc2)c1 | < 4.00 |
| Cc1cnn(-c2cccc(-c3cccc(C4(CN)CC4)c3)c2)c1 | < 4.00 |
| Cc1ncccc1-c1ccc([C@@H](NC(=O)OCc2ccccc2)C(=O)Nc2cccc(CN)c2)cc1 | < 4.00 |
| O=C(N[C@@H](C(=O)Nc1ccc2c(n1)CNC2)c1ccc(OCc2ccccc2)cc1)OCc1ccccc1 | < 4.00 |
| O=C(O)c1cc(Cl)cc(F)c1NS(=O)(=O)c1ccc(Oc2ccccc2Cl)cc1 | 4.73 |
| CCOCCNC(=O)c1cc(Cl)ccc1NS(=O)(=O)c1ccc(Oc2ccccc2Cl)cc1 | 4.70 and 4.69 |
| CS(=O)(=O)c1cccc(CNC(=O)[C@@H](NC(=O)OCc2ccccc2)c2ccc(OCc3ccccc3)cc2)c1 | < 4.00 |
| NCCc1ccc(CNC(=O)[C@@H](NC(=O)OCc2ccccc2)c2ccc(OCc3ccccc3)cc2)cc1 | 4.67 and 4.66 |
| Cn1c(C(=O)N2CCCc3ccc(C(F)F)cc32)cc2c1CCNC2 | < 4.00 |
| NCCCc1ccc(C(=O)N2CC(c3cccc(Br)c3)C2)cc1 | < 4.00 |

| SMILES | pIC50 |
| --- | --- |
| N[C@H]1CC[C@H](CNC(=O)[C@@H](NC(=O)OCc2ccccc2)c2ccc(OCc3ccccc3)cc2)CC1 | < 4.00 |
| Cc1ccc(CNC(=O)[C@@H](NC(=O)OCc2ccccc2)c2ccc(OCc3ccccc3)cc2)cn1 | < 4.00 |
| CN(C(=O)c1ccc2c(c1)[C@H](CN)CCC2)C1CCN(CC(F)F)CC1 | < 4.00 |
| NCc1cccc(NC(=O)[C@@H](NC(=O)c2cccnc2)c2ccc(OCc3ccccc3)cc2)c1 | < 4.00 |
| Cc1cc(C=O)c(O)c(C(=O)N2CC[C@H](CN(C)C)C2)c1 | < 4.00 |
| C[C@@H](Oc1ccc(S(=O)(=O)Nc2ccc(Cl)cc2C(=O)O)cc1)c1ccccc1F | 5.09 |
| Cc1n[nH]c2cc(C(=O)N3CCC(C)(NC(=O)[C@H]4C[C@H](N(C)C)C4)CC3)ccc12 | < 4.00 |
| NCc1ccccc1C1CCN(C(=O)[C@@]23CNC[C@]2(C(F)(F)F)C3)CC1 | < 4.00 |
| CN1CCC(c2nc(C(F)(F)F)n3c2CN(c2cccc(C(N)=O)n2)CC3)CC1 | < 4.00 |
| OCc1ccc(Cl)c(N2CCN(c3ccc4[nH]cnc4c3)CC2)n1 | < 4.00 |
| CCn1c(=O)c(N2C[C@@H]3[C@H](C2)[C@H]3C(=O)OC)nc2ccccc21 | < 4.00 |
| CC(C)c1cnc(COc2ccc(S(=O)(=O)Nc3ccc(Cl)cc3C(=O)O)cc2)o1 | 4.25 |
| O=C(N[C@@H](C(=O)NCc1ccc(CN2CCCC2)cc1)c1ccc(OCc2ccccc2)cc1)OCc1ccccc1 | < 4.00 |
| O=C(N[C@H](C(=O)NCc1ccccc1CO)c1ccc(OCc2ccccc2)cc1)OCc1ccccc1 | < 4.00 |
| CN(C)Cc1ccc(CNC(=O)[C@@H](NC(=O)OCc2ccccc2)c2ccc(OCc3ccccc3)cc2)cc1 | < 4.00 |
| O=C(N[C@@H](C(=O)NCc1cccc(CN2CCCCC2)c1)c1ccc(OCc2ccccc2)cc1)OCc1ccccc1 | < 4.00 |
| NS(=O)(=O)c1cc(F)c(Cl)cc1N1CCN(c2ccnc(O)c2)CC1 | < 4.00 |
| CCn1c(=O)c(N2CC[C@@]23CCN(C)C3)nc2ccccc21 | < 4.00 |
| NCc1ccccc1C1CCN(C(=O)[C@H]2CCN3CC[C@H]2C3)CC1 | < 4.00 |
| NCc1cccc(NC(=O)[C@H]2c3ccc(Br)cc3OCCN2C(=O)OCc2ccccc2)c1 | < 4.00 |
| CN(C)Cc1cc(CNC(=O)[C@@H](NC(=O)OCc2ccccc2)c2ccc(OCc3ccccc3)cc2)ccc1F | < 4.00 |
| NC[C@H]1CC[C@@H](CNC(=O)[C@@H](NC(=O)OCc2ccccc2)c2ccc(OCc3ccccc3)cc2)CC1 | 4.07 |
| Cc1ccc([C@@H](NC(=O)OCc2ccccc2)C(=O)Nc2cccc(CN)c2)cc1C | < 4.00 |
| CS(=O)(=O)NCc1cccc(CNC(=O)[C@@H](NC(=O)OCc2ccccc2)c2ccc(OCc3ccccc3)cc2)c1 | < 4.00 |

| SMILES | pIC50 |
| --- | --- |
| C[C@@H](O)c1cccc(N2CCC(c3nc(N)ncc3F)CC2)n1 | < 4.00 |
| O=C(O)c1ncc(F)cc1NS(=O)(=O)c1ccc(Oc2ccccc2Cl)cc1 | 4.21 |
| CN(C)C(=O)[C@@H](NC(=O)OCc1ccccc1)c1ccc(OCc2ccccc2)cc1 | < 4.00 |
| C[C@@H]1c2cccnc2CCN1Cc1cccc(CN(C)C)c1 | < 4.00 |
| O=C(O)c1cc(Cl)ccc1NS(=O)(=O)c1ccc(OCc2cccnc2)cc1 | < 4.00 |
| O=C(N[C@H](C(=O)NCc1cccc(CO)n1)c1ccc(OCc2ccccc2)cc1)OCc1ccccc1 | < 4.00 |
| CN(C)[C@H]1CCc2cc(-c3cccc(N4CCNC4=O)c3)ccc2NC1 | < 4.00 |
| O=C(N[C@H](C(=O)NCc1cccc(CO)c1)c1ccc(OCc2ccccc2)cc1)OCc1ccccc1 | < 4.00 |
| C[C@@H](NC(=O)C1CCN(c2cccc(C(N)=O)n2)CC1)[C@H]1CCCNC1 | < 4.00 |
| C[C@@H](NC(=O)c1cc(Cl)ccc1NS(=O)(=O)c1ccc(Oc2ccccc2Cl)cc1)C(=O)O | < 4.00 |
| Cc1cc(CNC(=O)[C@@H](NC(=O)OCc2ccccc2)c2ccc(OCc3ccccc3)cc2)cc(C)n1 | < 4.00 |
| CCN(CC(=O)NC)C(=O)c1cc(Cl)ccc1NS(=O)(=O)c1ccc(Oc2ccccc2Cl)cc1 | 4.16 |
| NCc1ccc2c(c1)CCC[C@H]2NCc1cc(Cl)cc2c1OCC2 | < 4.00 |
| CCn1c(=O)c(N2C[C@H]3CCCN3C(=O)[C@H]2C)nc2ccccc21 | < 4.00 |
| O=C(N[C@@H](C(=O)Nc1ccccn1)c1ccc(OCc2ccccc2)cc1)OCc1ccccc1 | < 4.00 |
| NCc1cccc(NC(=O)[C@H]2c3ccc(Br)cc3CCN2C(=O)OCc2ccccc2)c1 | < 4.00 |
| CN1CCN(Cc2cccc(CNC(=O)[C@@H](NC(=O)OCc3ccccc3)c3ccc(OCc4ccccc4)cc3)c2)CC1 | < 4.00 |
| CCc1ccc([C@@H](NC(=O)OCc2ccccc2)C(=O)Nc2cccc(CN)c2)cc1 | < 4.00 |
| NCc1cccc(NC(=O)[C@@H](NC(=O)OCc2ccccc2)c2ccc(-c3cccc4c3CCO4)cc2)c1 | 4.56 |
| Cn1nc(C2CCN(C(=O)c3ccccc3CSc3nnc[nH]3)CC2)cc1O | < 4.00 |
| Nc1ccc(CNC(=O)[C@@H](NC(=O)OCc2ccccc2)c2ccc(OCc3ccccc3)cc2)nc1 | < 4.00 |
| NCc1cccc(NC(=O)[C@@H](NC(=O)OCc2ccccc2)c2ccc(-c3cccc(F)c3)cc2)c1 | 5.09 and 5.22 and 5.21 |
